Reference: patent US7906488B2, “Sphingolipids in treatment and prevention of steatosis and of steatosis or of hepatotoxicity and its sequelae” (Nederlandse Organisatie Voor …, priority 2004, dated 2011)

Key:
APOE*3Leiden mice = assay: Effect of dietary sphingolipids on plasma C and TG levels (0.1, 0.2, 0.4% in diet); format: in vivo; details: 0.4% sphingolipid in diet, compared with 0.2%
Excerpt: Sphingolipids: The three sphingolipids that represent the most abundant natural complex sphingolipid classes and the three of the simplest natural sphingolipids, the sphingoid bases that can be formed by enzymatic breakdown of complex sphingolipids in the intestine were used. Sphingomyelin (mainly N-palmitoyl-sphingosine-1-phosphocholine) from egg was obtained from Larodan Fine Chemicals (Stockholm, Sweden). Yeast-derived (semi)synthetic ceramide III (N-stearoyl-phytosphingosine), cerebroside (N-stearoyl-phytosphingosine-1-glucose) and phytosphingosine (PS) were from Cosmoferm BV (Delft, the Netherlands). Sphinganine and sphingosine were from Avanti Polar Lipids (Albaster, Ala.). Animals and diets: Heterozygous female APOE*3Leiden transgenic mice (Van Vlijmen et al. 1994. J. Clin. Invest 93:1403-1410.) (6 months old) were fed a Western-type diet (Hope Farms, Woerden, the Netherlands) containing 15% cocoa butter, 0.25% cholesterol, 1% corn oil, 40.5% sucrose, 20% acid casein, 10% corn starch and 5.95% cellulose (all w/w) for 5 weeks. The mice were allowed free access to food and water. Body weight and food intake were monitored weekly. In the first experiment (FIG. 2), the mice were randomized after these 5 weeks into 7 groups (n=6), based on plasma cholesterol, triglycerides, and body weight. Subsequently, the mice were fed for three weeks the same diet without or with 0.1% (w/w) phytosphingosine (PS), sphingosine, sphinganine, cerebroside, ceramide III, or sphingomyelin. […]
Plasma parameters: Tail blood samples were collected in EDTA-coated cups, or in paraoxon-coated capillaries to prevent lipolysis as described in Zambon et al. 1993 (Zambon et al. 1993. J. Lipid Res. 34:1021-1028). Plasma lipid parameters were determined using commercial kits for total cholesterol (C) Chol R1 from Roche Diagnostics, Mannheim, Germany), non-esterified free fatty acids (FFA) (NEFA-C; Wako chemicals, Neuss, Germany), Total triglycerides (TG) (Triglyceride GPO-Trinder; Sigma, St. Louis, Mo.), β-hydroxybutyrate (β-HB; Sigma) and ALAT (Reflotron GPT; Roche). Serum amyloid A (SAA) was measured by ELISA (Biosource, Nivelles, Belgium) and fibrinogen by sandwich ELISA, as described in Koopman et al., 2005 (Koopman et al. 2005. Fibrinol Proteol 11:19). […] Hepatic VLDL-TG production: The rate of hepatic VLDL-TG production, de novo apoB secretion, and VLDL composition were determined in overnight-fasted mice. […] After 30 min, the animals received a Triton WR1339 injection (Tyloxapol, Sigma; 500 mg/kg body weight in 100 μl saline) to prevent systemic lipolysis of newly-secreted hepatic VLDL-TG (Aalto-Setala et al. 1992. J. Clin. Invest 90:1889-1900.27) Blood samples were drawn at 0, 15, 30, 60, and 90 min after Triton WR1339 injection and plasma TG concentrations were determined. […]

[1] = test system: galactosamine-injured primary rat hepatocytes; details: cited from earlier work
rats = details: administration to the food of rats; cited from earlier work
C57bI mice = details: intraperitoneal injection; cited from earlier work

CCCCCCCCCCCCC/C=C/[C@@H](O)[C@@H](N)CO [sphingosine]
Plasma C (APOE*3Leiden mice): decreased even more

CCCCCCCCC/C=C\CC/C=C/[C@@H](O)[C@H](CO[C@@H]1O[C@H](CO)[C@@H](O)[C@H](O)[C@H]1O)NC(=O)CCCCCCCCCCCCCCC [LCC, 1-O-(β-D-glucopyranosyl)-(2S,3R,4E,8Z)-2-N-palmityloctadecasphinga-4,8-diene]
Release into the culture medium of GPT and SDH [1]: reduce the release

CCCCCCCCCCCCC/C=C/[C@@H](O)[C@H](COP(=O)([O-])OCC[N+](C)(C)C)NC(=O)CCCCCCCCCCCCCCC [sphingomyelin, N-palmitoyl-sphingosine-1-phosphocholine]
Plasma C (APOE*3Leiden mice): decreased even more
Chances of occurrence of malignant, chemically induced colon cancer (rats): significantly decrease

CCCCCCCCCCCCCCCCCC(=O)N[C@@H](CO)[C@H](O)[C@H](O)CCCCCCCCCCCCCC [ceramide III, N-stearoyl-phytosphingosine]
Plasma C (APOE*3Leiden mice): decreased even more

glucocerebroside
Liver fat content (C57bI mice): reduced
